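Where inhibition never reached the appropriate level, the endpoint shown equals the highest concentration tested. Otherwise, values were interpolated linearly from a five-concentration, 48-hour dose response in 96-well plates. At the GI50, growth is halved.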 Active and inactive are the calls of the source. Cut-off read from the data, not from the text of the source: active = GI50 up to about 1.1 µM and inactive = higher.
Columns and labels:
Test in all cases: inhibition of tumour cell growth, NCI panel, 48 h
TK-10 = system: TK-10
IGROV-1 = system: IGROV-1
786-0 = system: 786-0
SR = system: SR
PC-3 = system: PC-3
RXF 393 = system: RXF 393
SF-539 = system: SF-539
SK-MEL-5 = system: SK-MEL-5
NCI-H460 = system: NCI-H460
OVCAR-8 = system: OVCAR-8
SW-620 = system: SW-620
MCF7 = system: MCF7
A549 = system: A549
U-251 = system: U-251
SN12C = system: SN12C
LOX IMVI = system: LOX IMVI
EKVX = system: EKVX
HOP-62 = system: HOP-62
Hs-578T = system: Hs-578T
HCT-15 = system: HCT-15
COLO 205 = system: COLO 205
KM12 = system: KM12
HCT-116 = system: HCT-116
SF-295 = system: SF-295
RPMI-8226 = system: RPMI-8226
OVCAR-4 = system: OVCAR-4
NCI-H522 = system: NCI-H522
A498 = system: A498
DU-145 = system: DU-145
ACHN = system: ACHN
SK-OV-3 = system: SK-OV-3
NCI/ADR-RES = system: NCI/ADR-RES
HT-29 = system: HT-29
UACC-257 = system: UACC-257
K562 = system: K562
HCC 2998 = system: HCC 2998
NCI-H23 = system: NCI-H23
BT-549 = system: BT-549
M14 = system: M14
SF-268 = system: SF-268
UACC-62 = system: UACC-62
OVCAR-3 = system: OVCAR-3
CAKI-1 = system: CAKI-1
MOLT-4 = system: MOLT-4
CCRF-CEM = system: CCRF-CEM
UO-31 = system: UO-31
MDA-N = system: MDA-N
OVCAR-5 = system: OVCAR-5
SK-MEL-28 = system: SK-MEL-28
HOP-92 = system: HOP-92
MDA-MB-435 = system: MDA-MB-435
HL-60 = system: HL-60
SK-MEL-2 = system: SK-MEL-2
MDA-MB-231 = system: MDA-MB-231
SNB-19 = system: SNB-19
SNB-75 = system: SNB-75
T47D = system: T47D
NCI-H226 = system: NCI-H226
Malme-3M = system: Malme-3M

Structure (SMILES): Cn1c(-c2cccs2)cc(-c2ccccc2)c1-c1cccs1
- GI50 (TK-10): > 100 µM (inactive)
- GI50 (IGROV-1): 39.4 µM (inactive)
- GI50 (786-0): 35.4 µM (inactive)
- GI50 (SR): 18.2 µM (inactive)
- GI50 (PC-3): 58.5 µM (inactive)
- GI50 (RXF 393): > 100 µM (inactive)
- GI50 (SF-539): 43.8 µM (inactive)
- GI50 (SK-MEL-5): 18.6 µM (inactive)
- GI50 (NCI-H460): > 100 µM (inactive)
- GI50 (OVCAR-8): 65.2 µM (inactive)
- GI50 (SW-620): > 100 µM (inactive)
- GI50 (MCF7): 3.58 µM (inactive)
- GI50 (A549): 12.3 µM (inactive)
- GI50 (U-251): 47.8 µM (inactive)
- GI50 (SN12C): > 100 µM (inactive)
- GI50 (LOX IMVI): > 100 µM (inactive)
- GI50 (EKVX): 22.7 µM (inactive)
- GI50 (HOP-62): 18.2 µM (inactive)
- GI50 (Hs-578T): > 100 µM (inactive)
- GI50 (HCT-15): > 100 µM
- GI50 (COLO 205): 19.1 µM (inactive)
- GI50 (KM12): 74 µM (inactive)
- GI50 (HCT-116): 31.2 µM (inactive)
- GI50 (SF-295): 17 µM (inactive)
- GI50 (RPMI-8226): > 100 µM (inactive)
- GI50 (OVCAR-4): 74.3 µM (inactive)
- GI50 (NCI-H522): 50.8 µM (inactive)
- GI50 (A498): > 100 µM (inactive)
- GI50 (DU-145): > 100 µM (inactive)
- GI50 (ACHN): 39.9 µM (inactive)
- GI50 (SK-OV-3): 36.1 µM (inactive)
- GI50 (NCI/ADR-RES): > 100 µM (inactive)
- GI50 (HT-29): 63 µM (inactive)
- GI50 (UACC-257): 48.2 µM (inactive)
- GI50 (K562): > 100 µM (inactive)
- GI50 (HCC 2998): > 100 µM (inactive)
- GI50 (NCI-H23): 4.75 µM (inactive)
- GI50 (BT-549): > 100 µM (inactive)
- GI50 (M14): 56.6 µM (inactive)
- GI50 (SF-268): > 100 µM (inactive)
- GI50 (UACC-62): 97.5 µM (inactive)
- GI50 (OVCAR-3): 20.4 µM (inactive)
- GI50 (CAKI-1): 93.5 µM (inactive)
- GI50 (MOLT-4): 66.2 µM (inactive)
- GI50 (CCRF-CEM): > 100 µM (inactive)
- GI50 (UO-31): > 100 µM (inactive)
- GI50 (MDA-N): > 100 µM (inactive)
- GI50 (OVCAR-5): 88.5 µM (inactive)
- GI50 (SK-MEL-28): > 100 µM (inactive)
- GI50 (HOP-92): > 100 µM (inactive)
- GI50 (MDA-MB-435): > 100 µM (inactive)
- GI50 (HL-60): 68.7 µM (inactive)
- GI50 (SK-MEL-2): 25.5 µM (inactive)
- GI50 (MDA-MB-231): > 100 µM (inactive)
- GI50 (SNB-19): 12.2 µM (inactive)
- GI50 (SNB-75): > 100 µM (inactive)
- GI50 (T47D): > 100 µM (inactive)
- GI50 (NCI-H226): 45.4 µM (inactive)

Structure (SMILES): O=c1cnn(C/C=C/CBr)c(=O)[nH]1
- GI50 (IGROV-1): 16.2 µM (inactive)
- GI50 (SR): 17.7 µM (inactive)
- GI50 (PC-3): 14.9 µM (inactive)
- GI50 (RXF 393): 15.5 µM (inactive)
- GI50 (SF-539): 16.1 µM (inactive)
- GI50 (SK-MEL-5): 13.1 µM (inactive)
- GI50 (NCI-H460): 17.2 µM (inactive)
- GI50 (OVCAR-8): 23.1 µM (inactive)
- GI50 (SW-620): 13.6 µM (inactive)
- GI50 (MCF7): 12.9 µM (inactive)
- GI50 (A549): 16.8 µM (inactive)
- GI50 (U-251): 15 µM (inactive)
- GI50 (SN12C): 17.9 µM (inactive)
- GI50 (LOX IMVI): 16.1 µM (inactive)
- GI50 (EKVX): 19.6 µM (inactive)
- GI50 (HOP-62): 17.9 µM (inactive)
- GI50 (Hs-578T): 33 µM (inactive)
- GI50 (HCT-15): 18.2 µM
- GI50 (COLO 205): 18.8 µM (inactive)
- GI50 (KM12): 17.5 µM (inactive)
- GI50 (RPMI-8226): 5.48 µM (inactive)
- GI50 (OVCAR-4): 20.6 µM (inactive)
- GI50 (NCI-H522): 8.17 µM (inactive)
- GI50 (A498): 14.9 µM (inactive)
- GI50 (DU-145): 24.2 µM (inactive)
- GI50 (ACHN): 16.7 µM (inactive)
- GI50 (NCI/ADR-RES): 23.3 µM (inactive)
- GI50 (HT-29): 13.8 µM (inactive)
- GI50 (UACC-257): 13.9 µM (inactive)
- GI50 (K562): 21.4 µM (inactive)
- GI50 (HCC 2998): 18.5 µM (inactive)
- GI50 (BT-549): 0.527 µM (active)
- GI50 (M14): 15.3 µM (inactive)
- GI50 (SF-268): 17.1 µM (inactive)
- GI50 (OVCAR-3): 25.7 µM (inactive)
- GI50 (CAKI-1): 12.9 µM (inactive)
- GI50 (MOLT-4): 19.6 µM (inactive)
- GI50 (CCRF-CEM): 15.2 µM (inactive)
- GI50 (UO-31): 14.1 µM (inactive)
- GI50 (MDA-N): 14.7 µM (inactive)
- GI50 (OVCAR-5): 17.4 µM (inactive)
- GI50 (SK-MEL-28): 19.2 µM (inactive)
- GI50 (HOP-92): 14.6 µM (inactive)
- GI50 (MDA-MB-435): 14.9 µM (inactive)
- GI50 (Malme-3M): 16.4 µM (inactive)
- GI50 (HL-60): 8.47 µM (inactive)
- GI50 (SK-MEL-2): 17.1 µM (inactive)
- GI50 (MDA-MB-231): 21.9 µM (inactive)
- GI50 (SNB-19): 24.7 µM (inactive)
- GI50 (SNB-75): 18.8 µM (inactive)
- GI50 (T47D): 19.1 µM (inactive)
- GI50 (NCI-H226): 17 µM (inactive)

Structure (SMILES): COc1cc2cc(C(=O)N3CC(CCl)c4ccc([N+](C)(C)Cc5ccccc5[N+](=O)[O-])cc43)[nH]c2c(OC)c1OC (stereo not drawn)
- GI50 (TK-10): 2.74 µM (inactive)
- GI50 (IGROV-1): 1.82 µM (inactive)
- GI50 (786-0): 1.53 µM (inactive)
- GI50 (SR): 0.213 µM (active)
- GI50 (PC-3): 1.68 µM (inactive)
- GI50 (RXF 393): 0.652 µM (active)
- GI50 (SF-539): 1.63 µM (inactive)
- GI50 (SK-MEL-5): 0.875 µM (active)
- GI50 (OVCAR-8): 3.44 µM (inactive)
- GI50 (SW-620): 2.01 µM (inactive)
- GI50 (MCF7): 0.621 µM (active)
- GI50 (A549): 0.314 µM (active)
- GI50 (U-251): 2.18 µM (inactive)
- GI50 (SN12C): 4.05 µM (inactive)
- GI50 (LOX IMVI): 2.31 µM (inactive)
- GI50 (EKVX): 3.78 µM (inactive)
- GI50 (HOP-62): 2.94 µM (inactive)
- GI50 (Hs-578T): 2.4 µM (inactive)
- GI50 (HCT-15): 2.14 µM
- GI50 (COLO 205): 2 µM (inactive)
- GI50 (KM12): 2.24 µM (inactive)
- GI50 (HCT-116): 1.66 µM (inactive)
- GI50 (SF-295): 1.47 µM (inactive)
- GI50 (RPMI-8226): 1.3 µM (inactive)
- GI50 (OVCAR-4): 2.41 µM (inactive)
- GI50 (NCI-H522): 0.198 µM (active)
- GI50 (A498): 0.398 µM (active)
- GI50 (DU-145): 1.53 µM (inactive)
- GI50 (ACHN): 0.348 µM (active)
- GI50 (SK-OV-3): 4.51 µM (inactive)
- GI50 (NCI/ADR-RES): 1.76 µM (inactive)
- GI50 (HT-29): 0.962 µM (active)
- GI50 (UACC-257): 1.66 µM (inactive)
- GI50 (K562): 1.71 µM (inactive)
- GI50 (HCC 2998): 1.27 µM (inactive)
- GI50 (NCI-H23): 0.762 µM (active)
- GI50 (BT-549): 1.95 µM (inactive)
- GI50 (M14): 1.67 µM (inactive)
- GI50 (SF-268): 1.71 µM (inactive)
- GI50 (UACC-62): 1.01 µM (active)
- GI50 (OVCAR-3): 2.94 µM (inactive)
- GI50 (CAKI-1): 1.01 µM (active)
- GI50 (MOLT-4): 0.63 µM (active)
- GI50 (CCRF-CEM): 0.966 µM (active)
- GI50 (UO-31): 1.33 µM (inactive)
- GI50 (MDA-N): 2.26 µM (inactive)
- GI50 (OVCAR-5): 2.66 µM (inactive)
- GI50 (SK-MEL-28): 2.46 µM (inactive)
- GI50 (HOP-92): 2.21 µM (inactive)
- GI50 (MDA-MB-435): 1.82 µM (inactive)
- GI50 (Malme-3M): 1.73 µM (inactive)
- GI50 (HL-60): 2.77 µM (inactive)
- GI50 (SK-MEL-2): 1.89 µM (inactive)
- GI50 (MDA-MB-231): 3.94 µM (inactive)
- GI50 (SNB-19): 2.36 µM (inactive)
- GI50 (SNB-75): 4.09 µM (inactive)
- GI50 (T47D): 2.31 µM (inactive)
- GI50 (NCI-H226): 1.48 µM (inactive)
